According to patent publication US10308959B2, “Methods, systems, and compositions relating to MiRNA-146a” (Henry Ford Health System, priority 2013, dated 2019):

Legend:
Type in all cases: cell-based
[1] = system: mouse OPC cell line-N20.1; experiment: miR-146a quantification by qrtPCR in N20.1 cells
Experimental: The mouse primary cultures of OPCs were conditionally immortalized by transformation with a temperature-sensitive large T-antigen into a mouse OPC cell line-N20.1 (21). N20.1 cells were provided by Dr. Anthony Campagnoni (University of California at Los Angeles). N20.1 cells were grown and maintained in Dulbecco's modified Eagle's medium (“DMEM”)/F12 with 1% fetal bovine serum (“FBS”) and G418 (100 μg/ml) at 37° C. For N20.1 cells, transient transfections were performed with Nucleofector kit according to the manufacturer's protocol (Amaxa, Germany). The cells (10^6) were mixed with 1 μg plasmid DNA or 100 pmol of siRNA/oligo nucleotides and pulsed according to the manufacturer's instruction. The transfected cells were immediately plated into Petri dishes with DMEM containing 1% FBS and incubated at 37° C. for days. Primary rat embryonic OPCs were transiently transfected with Lipofectamine (Invitrogen) overnight, according to the manufacturer's protocol (see Chew et al., J. Neuroscience 30(33): 11011-11027 (2010)). […]
The cDNA for each miR and TaqMan assay were performed in triplicate according to the manufacturer's protocol specified in Applied Biosystems ViiA™ 7 Real-Time PCR System (Applied Biosystem). […] Values obtained from three independent experiments were analyzed relative to gene expression data using the 2^−ΔΔCT method.

[2] = system: primary rat embryonic OPCs; experiment: QrtPCR of mRNA (MBP, p38MAPK) in primary rat embryonic OPCs
Experimental: (§1) Primary rat embryonic OPCs were isolated and prepared according to the method known to the skilled artisan. Briefly, on embryonic day 17, rat embryos were removed from a pregnant Wistar rat in a laminar flow hood. The cortices were dissected out by using microdissecting scissors, rinsed twice in Hank's buffered salt solution and dissociated after digesting with 0.01% trypsin and DNase at 37° C. for 15 min. The digested cells were washed twice, filtered through a 70 mm nylon cell strainer and plated with DMEM containing 20% fetal bovine serum (FBS) in poly-D-lysine coated T75 cell culture flasks (approximately 10 million cells per flask). The cells grew to confluence for 10 days and then were placed on the shaker at 200 r.p.m. at 37° C. for 1 h to remove microglial cells. Subsequently, the cells were left on the shaker for an additional 18-20 h to collect OPCs. The collected OPCs were plated in untreated Petri dishes for 1 h to remove contaminated microglia and astrocytes which attach to the Petri dish more efficiently than OPCs. The unattached OPCs were transferred onto poly-D,L-ornithine-coated Petri dishes at a cell density of 10^4 per/cm2 with a basal chemically defined medium (“BDM”) containing 10 ng/ml platelet-derived growth factor-alpha (“PDGF-AA”) and 10 ng/ml basic fibroblast growth factor (“bFGF”) for 7-10 days.
(§2) The mouse primary cultures of OPCs were conditionally immortalized by transformation with a temperature-sensitive large T-antigen into a mouse OPC cell line-N20.1 (21). N20.1 cells were provided by Dr. Anthony Campagnoni (University of California at Los Angeles). N20.1 cells were grown and maintained in Dulbecco's modified Eagle's medium (“DMEM”)/F12 with 1% fetal bovine serum (“FBS”) and G418 (100 μg/ml) at 37° C. For N20.1 cells, transient transfections were performed with Nucleofector kit according to the manufacturer's protocol (Amaxa, Germany). The cells (10^6) were mixed with 1 μg plasmid DNA or 100 pmol of siRNA/oligo nucleotides and pulsed according to the manufacturer's instruction. […]

[3] = system: primary rat embryonic OPCs; experiment: miR-146a quantification by qrtPCR in primary rat embryonic OPCs
Experimental: (§3) Primary rat embryonic OPCs were isolated and prepared according to the method known to the skilled artisan. Briefly, on embryonic day 17, rat embryos were removed from a pregnant Wistar rat in a laminar flow hood. The cortices were dissected out by using microdissecting scissors, rinsed twice in Hank's buffered salt solution and dissociated after digesting with 0.01% trypsin and DNase at 37° C. for 15 min. The digested cells were washed twice, filtered through a 70 mm nylon cell strainer and plated with DMEM containing 20% fetal bovine serum (FBS) in poly-D-lysine coated T75 cell culture flasks (approximately 10 million cells per flask). The cells grew to confluence for 10 days and then were placed on the shaker at 200 r.p.m. at 37° C. for 1 h to remove microglial cells. Subsequently, the cells were left on the shaker for an additional 18-20 h to collect OPCs. The collected OPCs were plated in untreated Petri dishes for 1 h to remove contaminated microglia and astrocytes which attach to the Petri dish more efficiently than OPCs. The unattached OPCs were transferred onto poly-D,L-ornithine-coated Petri dishes at a cell density of 10^4 per/cm2 with a basal chemically defined medium (“BDM”) containing 10 ng/ml platelet-derived growth factor-alpha (“PDGF-AA”) and 10 ng/ml basic fibroblast growth factor (“bFGF”) for 7-10 days. […]

[4] = system: mouse OPC cell line-N20.1; experiment: QrtPCR of mRNA (MBP, p38MAPK) in N20.1 cells
Experimental: The mouse primary cultures of OPCs were conditionally immortalized by transformation with a temperature-sensitive large T-antigen into a mouse OPC cell line-N20.1 (21). N20.1 cells were provided by Dr. Anthony Campagnoni (University of California at Los Angeles). N20.1 cells were grown and maintained in Dulbecco's modified Eagle's medium (“DMEM”)/F12 with 1% fetal bovine serum (“FBS”) and G418 (100 μg/ml) at 37° C. For N20.1 cells, transient transfections were performed with Nucleofector kit according to the manufacturer's protocol (Amaxa, Germany). The cells (10^6) were mixed with 1 μg plasmid DNA or 100 pmol of siRNA/oligo nucleotides and pulsed according to the manufacturer's instruction. The transfected cells were immediately plated into Petri dishes with DMEM containing 1% FBS and incubated at 37° C. for days. Primary rat embryonic OPCs were transiently transfected with Lipofectamine (Invitrogen) overnight, according to the manufacturer's protocol (see Chew et al., J. Neuroscience 30(33): 11011-11027 (2010)). Amounts of DNA and siRNA/oligo nucleotides were used as recommended by the manufacturer. The control plasmid (pcDNA3) was used as a mock transfected control for miR-146a expression vector transfection, and control siRNA (Ambion, a random mixture of oligonucleotides) was used as a mock transfected control for both transfections with Tβ4siRNA and anti-miR-146a inhibitor nucleotides. The cells (10^4 cells/cm^2) were treated with 0, 25, 50, 100 ng/ml of Tβ4 (RegeneRx Biopharmaceuticals Inc., Rockville, Md.). The cells were incubated at 37° C. and fed every 2 days with fresh medium (DMEM containing 1% FBS for N20.1 cells and BDM for primary rat embryonic OPCs) with and without Tβ4 for 4 days. […]
After qrtPCR, agarose gel electrophoresis was performed to verify the quality of the qrtPCR products. No secondary products were detected. […] Values obtained from three independent experiments were analyzed relative to gene expression data using the 2^−ΔΔCT method.

[5] = system: mouse OPC cell line-N20.1; experiment: Western blot of MBP, TLR signaling mediators and MAPKs in N20.1 cells
Experimental: The mouse primary cultures of OPCs were conditionally immortalized by transformation with a temperature-sensitive large T-antigen into a mouse OPC cell line-N20.1 (21). N20.1 cells were provided by Dr. Anthony Campagnoni (University of California at Los Angeles). N20.1 cells were grown and maintained in Dulbecco's modified Eagle's medium (“DMEM”)/F12 with 1% fetal bovine serum (“FBS”) and G418 (100 μg/ml) at 37° C. For N20.1 cells, transient transfections were performed with Nucleofector kit according to the manufacturer's protocol (Amaxa, Germany). The cells (10^6) were mixed with 1 μg plasmid DNA or 100 pmol of siRNA/oligo nucleotides and pulsed according to the manufacturer's instruction. The transfected cells were immediately plated into Petri dishes with DMEM containing 1% FBS and incubated at 37° C. for days. Primary rat embryonic OPCs were transiently transfected with Lipofectamine (Invitrogen) overnight, according to the manufacturer's protocol (see Chew et al., J. Neuroscience 30(33): 11011-11027 (2010)). Amounts of DNA and siRNA/oligo nucleotides were used as recommended by the manufacturer. The control plasmid (pcDNA3) was used as a mock transfected control for miR-146a expression vector transfection, and control siRNA (Ambion, a random mixture of oligonucleotides) was used as a mock transfected control for both transfections with Tβ4siRNA and anti-miR-146a inhibitor nucleotides. The cells (10^4 cells/cm^2) were treated with 0, 25, 50, 100 ng/ml of Tβ4 (RegeneRx Biopharmaceuticals Inc., Rockville, Md.). The cells were incubated at 37° C. and fed every 2 days with fresh medium (DMEM containing 1% FBS for N20.1 cells and BDM for primary rat embryonic OPCs) with and without Tβ4 for 4 days. To test for LPS contamination in Tβ4, the cells were cultured in the presence of the LPS inhibitor polymyxin B (50 μg/ml) followed by treatment with Tβ4. Tβ4 (100 ng/ml) was boiled for 10 minutes in order to denature Tβ4 protein and was used as a negative control. Transfected cells (2×10^4 cells/cm2) including mock transfected controls were treated with and without 100 ng/ml of Tβ4 (RegeneRx Biopharmaceuticals Inc., Rockville, Md.) for 4 days and fresh medium was provided at day 2 with/without Tβ4.
Total protein extracts from the cells were prepared, as known to the skilled artisan. The protein extracts were separated by sodium dodecyl sulfate-polyacrylamide gel electrophoresis for Western blot analysis. For Western blot analysis, rabbit antiserum for MBP (1:200; Dako, Carpinteria, Calif.), monoclonal antibodies (1:1000) for p38MAPK, phosphorylated p38MAPK, c-JUN, phosphorylated c-JUN (1:1000; Upstate, Charlottesville, Va., USA), rabbit polyclonal antibodies (1:1000) for JNK1 and phosphorylated JNK1 (Promega Corporation), goat polyclonal TLR2, rabbit polyclonal TLR4, mouse monoclonal IRAK1 antibodies (1:1000), rabbit polyclonal TRAF6 antibodies (1:1000) mouse monoclonal β-actin antibodies (1:5000; Santa Cruz Biotechnology) and mouse monoclonal α-tubulin antibodies (1:5000; Sigma) were used. Donkey anti-goat, anti-rabbit, and anti-mouse horseradish peroxidase (1:5000; Jackson ImmunoResearch Labs, West Grove, Pa., USA) were used as secondary antibodies. Each experiment was repeated at least three times. The protein bands were quantified based on histogram analysis relative to gel loading marker α-tubulin.

[6] = system: mouse N20.1 cells; experiment: MBP immunofluorescence cell counting in N20.1 cells; settings: Tβ4 100 ng/ml where used; DAPI positive cells as total
Experimental: as §2
Immunofluorescence staining was performed in N20.1 and primary rat embryonic OPC cells. These cells were fixed with 4% paraformaldehyde for 1 h, washed with PBS, blocked with 1% serum for 1 h and incubated with monoclonal antibodies of OPC marker—O4, (1:1000, Chemicon, Billerica, Mass., USA) and a polyclonal antibody against mature OL marker—MBP (1:200; Dako, Carpinteria, Calif.) at room temperature for one hour, rinsed with PBS and secondary antibodies labeled with cyanine fluorophore (Cy3—red fluorescence) for 1 h. The slides were counterstained with 4′,6-diamidino-2-phenylindole (DAPI—blue fluorescence) and examined under Fluorescent Illumination Microscope (Olympus IX71/IX51, Tokyo, Japan). […]

[7] = system: primary rat embryonic OPCs; experiment: MBP immunofluorescence cell counting in primary rat embryonic OPCs; settings: Tβ4 100 ng/ml where used; DAPI positive cells as total
Experimental: as §3

[8] = system: primary rat embryonic OPCs; experiment: Western blot of MBP, TLR signaling mediators and MAPKs in primary rat embryonic OPCs
Experimental: as §1
The mouse primary cultures of OPCs were conditionally immortalized by transformation with a temperature-sensitive large T-antigen into a mouse OPC cell line-N20.1 (21). N20.1 cells were provided by Dr. Anthony Campagnoni (University of California at Los Angeles). N20.1 cells were grown and maintained in Dulbecco's modified Eagle's medium (“DMEM”)/F12 with 1% fetal bovine serum (“FBS”) and G418 (100 μg/ml) at 37° C. For N20.1 cells, transient transfections were performed with Nucleofector kit according to the manufacturer's protocol (Amaxa, Germany). The cells (10^6) were mixed with 1 μg plasmid DNA or 100 pmol of siRNA/oligo nucleotides and pulsed according to the manufacturer's instruction. The transfected cells were immediately plated into Petri dishes with DMEM containing 1% FBS and incubated at 37° C. for days. Primary rat embryonic OPCs were transiently transfected with Lipofectamine (Invitrogen) overnight, according to the manufacturer's protocol (see Chew et al., J. Neuroscience 30(33): 11011-11027 (2010)). Amounts of DNA and siRNA/oligo nucleotides were used as recommended by the manufacturer. The control plasmid (pcDNA3) was used as a mock transfected control for miR-146a expression vector transfection, and control siRNA (Ambion, a random mixture of oligonucleotides) was used as a mock transfected control for both transfections with Tβ4siRNA and anti-miR-146a inhibitor nucleotides. The cells (10^4 cells/cm^2) were treated with 0, 25, 50, 100 ng/ml of Tβ4 (RegeneRx Biopharmaceuticals Inc., Rockville, Md.). The cells were incubated at 37° C. and fed every 2 days with fresh medium (DMEM containing 1% FBS for N20.1 cells and BDM for primary rat embryonic OPCs) with and without Tβ4 for 4 days. To test for LPS contamination in Tβ4, the cells were cultured in the presence of the LPS inhibitor polymyxin B (50 μg/ml) followed by treatment with Tβ4. Tβ4 (100 ng/ml) was boiled for 10 minutes in order to denature Tβ4 protein and was used as a negative control. […]

[9] = second miR named, sentence 'In contrast'
[10] = in the presence of polymyxin B (50 μg/ml), 50 and 100 ng/ml, 4 days

thymosin beta 4 (SDKPDMAEIEKFDKSKLKKTETQEKNPLPSKETIEQEKQAGES; listed as Homo sapiens) [Tβ4]
expression of miR-146a ([1]; Tβ4 0 to 100 ng/ml, 4 days): increased in a dose dependent manner
miR-146a expression (data not shown) [1, 9]: no effect
increase in mRNA MBP expression ([2]; Tβ4 100 ng/ml where used): two-fold increase
expression of MBP, mRNA and protein levels [2, 10]: induced
expression of miR-146a ([3]; Tβ4 0 to 100 ng/ml, 4 days): increased in a dose dependent manner
miR-146a expression (data not shown) [3, 9]: no effect
increase in mRNA MBP expression ([4]; Tβ4 100 ng/ml where used): two-fold increase
expression of MBP, mRNA and protein levels [4, 10]: induced
expression and phosphorylation of p38MAPK [5]: induced
expression level of MBP (protein) [5]: increased
expression levels of IRAK1 and TRAF6 [5]: markedly reduced
expression of TLR2 and TLR4 [5]: no effect
phosphorylation of ERK1/2, JNK1 and c-Jun [5]: dose-dependently inhibited
number of MBP positive OPCs [6]: significantly increased
number of MBP positive OPCs [7]: significantly increased
expression and phosphorylation of p38MAPK [8]: induced
expression level of MBP (protein) [8]: increased
expression levels of IRAK1 and TRAF6 [8]: markedly reduced
expression of TLR2 and TLR4 [8]: no effect
phosphorylation of ERK1/2, JNK1 and c-Jun [8]: dose-dependently inhibited
